Measurements taken from patent publication US11661426B2, “Imidazole-containing inhibitors of ALK2 kinase” (BioCryst Pharmaceuticals, Inc., priority 2017, dated 2023).

Target: ALK2 (Homo sapiens (Human), UniProt Q04771)
Experiment: ALK2 inhibition, LanthaScreen Eu Kinase Binding Assay (ThermoFisher Scientific / Life Technologies)
Conditions: read-out: Measured Ki (IC50) Value for Compounds: IC50
Protocol: Biochemical assays to measure the inhibitory effects of the compounds were performed by ThermoFisher Scientific (Life Technologies). ALK2 inhibition was tested using LanthaScreen™ Eu Kinase Binding Assay screening protocol.

Chain of ALK2 (Q04771 21-509): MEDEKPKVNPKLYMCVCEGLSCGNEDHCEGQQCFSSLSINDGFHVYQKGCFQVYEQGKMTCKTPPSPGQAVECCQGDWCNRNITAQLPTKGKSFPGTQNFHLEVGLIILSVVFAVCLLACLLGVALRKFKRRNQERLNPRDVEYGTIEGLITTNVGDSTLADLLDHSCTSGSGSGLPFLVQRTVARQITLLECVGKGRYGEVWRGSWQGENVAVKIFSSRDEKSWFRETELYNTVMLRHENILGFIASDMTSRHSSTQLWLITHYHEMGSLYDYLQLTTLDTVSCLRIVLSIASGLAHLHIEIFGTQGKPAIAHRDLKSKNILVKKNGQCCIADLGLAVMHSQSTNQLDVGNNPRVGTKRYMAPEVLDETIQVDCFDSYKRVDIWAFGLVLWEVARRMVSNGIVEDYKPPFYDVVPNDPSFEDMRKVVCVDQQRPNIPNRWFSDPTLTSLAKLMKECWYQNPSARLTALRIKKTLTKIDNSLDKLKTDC

SMILES | IC50
OC[C@@H]1CCCN1c1nc(Nc2cc(-c3ccccc3)[nH]n2)nc2ccoc12 [Compound 354b, (S)-(1-(2-((5-phenyl-1H-pyrazol-3-yl)amino)furo[3,2-d]pyrimidin-4-yl)pyrrolidin-2-yl)methanol] | > 1000 nM
COc1cc(-n2cnc(Nc3nc(N4CCC[C@H]4CO)nn4c(Br)ccc34)c2)cc(OC)c1OC [Compound 85b, (S)-(1-(7-bromo-4-(1-(3,4,5-trimethoxyphenyl)-1H-imidazol-4-ylamino)pyrrolo[1,2-f][1,2,4]triazin-2-yl)pyrrolidin-2-yl)methanol] | < 100 nM
COc1cc(C(=O)N2CCC[C@H]2CO)cc(-n2cnc(Nc3nc(N4CCC[C@H]4CO)nn4cccc34)c2)c1 [Compound 416f, ((S)-2-(hydroxymethyl)pyrrolidin-1-yl)(3-(4-((2-((S)-2-(hydroxymethyl)pyrrolidin-1-yl)pyrrolo[2,1-f][1,2,4]triazin-4-yl)amino)-1H-imidazol-1-yl)-5-methoxyphenyl)methanone] | 100 to 1000 nM
COc1cc(-n2cnc(Nc3nc(N4CCC[C@H]4CO)nn4c(CN5CCCCC5)ccc34)c2)cc(OC)c1OC [Compound 105b, (S)-(1-(7-(piperidin-1-ylmethyl)-4-((1-(3,4,5-trimethoxyphenyl)-1H-imidazol-4-yl)amino)pyrrolo[2,1-f][1,2,4]triazin-2-yl)pyrrolidin-2-yl)methanol] | < 100 nM
COc1cc(-n2cnc(Nc3nc4c(c(N5CCC[C@H]5CO)n3)CN(Cc3ccccc3)CC4)c2)cc(OC)c1OC [Compound 177b, (S)-(1-(6-benzyl-2-((1-(3,4,5-trimethoxyphenyl)-1H-imidazol-4-yl)amino)-5,6,7,8-tetrahydropyrido[4,3-d]pyrimidin-4-yl)pyrrolidin-2-yl)methanol] | < 100 nM
CCOc1ccc(-n2cnc(Nc3nc(N4CCC[C@H]4CO)nn4cccc34)c2)cc1OCC [Compound 319b, (S)-(1-(4-((1-(3,4-diethoxyphenyl)-1H-imidazol-4-yl)amino)pyrrolo[2,1-f][1,2,4]triazin-2-yl)pyrrolidin-2-yl)methanol] | 100 to 1000 nM
c1ccc(-n2cnc(Nc3nc(N4CCCC4c4ccccn4)nn4cccc34)c2)cc1 (stereo not shown) [Compound 9a, N-(1-phenyl-1H-imidazol-4-yl)-2-(2-(pyridin-2-yl)pyrrolidin-1-yl)pyrrolo[2,1-f][1,2,4]triazin-4-amine] | 100 to 1000 nM
COc1cc(C(N)=O)cc(-n2cnc(Nc3nc(N4CCC[C@H]4CO)nn4cccc34)c2)c1 [Compound 125c, (S)-3-(4-((2-(2-(hydroxymethyl)pyrrolidin-1-yl)pyrrolo[2,1-f][1,2,4]triazin-4-yl)amino)-1H-imidazol-1-yl)-5-methoxybenzamide] | < 100 nM
COc1cc(-n2cnc(Nc3nc(N4CCC[C@H]4C(N)=O)nc4[nH]cc(C#N)c34)c2)cc(OC)c1OC [Compound 395d, (S)-1-(5-cyano-4-((1-(3,4,5-trimethoxyphenyl)-1H-imidazol-4-yl)amino)-7H-pyrrolo[2,3-d]pyrimidin-2-yl)pyrrolidine-2-carboxamide] | > 1000 nM
NC(=O)c1ccc(-n2cnc(Nc3nc(N4CCC[C@H]4CO)nn4cccc34)c2)cc1 [Compound 93c, (S)-4-(4-(2-(2-(hydroxymethyl)pyrrolidin-1-yl)pyrrolo[1,2-f][1,2,4]triazin-4-ylamino)-1H-imidazol-1-yl)benzamide] | < 100 nM
COc1cc(-n2cnc(Nc3nc(N4CCC[C@H]4C(N)=O)nc4c3CCNC4)c2)cc(OC)c1OC [Compound 185b, (S)-1-(4-((1-(3,4,5-trimethoxyphenyl)-1H-imidazol-4-yl)amino)-5,6,7,8-tetrahydropyrido[3,4-d]pyrimidin-2-yl)pyrrolidine-2-carboxamide] | < 100 nM
COc1cc(-n2cnc(Nc3nc(N4CCC[C@H]4CO)nc4c3CCN(Cc3ccccc3)C4)c2)cc(OC)c1OC [Compound 153c, (S)-(1-(7-benzyl-4-((1-(3,4,5-trimethoxyphenyl)-1H-imidazol-4-yl)amino)-5,6,7,8-tetrahydropyrido[3,4-d]pyrimidin-2-yl)pyrrolidin-2-yl)methanol] | < 100 nM
Cn1cnc(Nc2nc(N3CCCC3c3ccccn3)nc3ccoc23)c1 (stereo not shown) [Compound 5a, N-(1-methyl-1H-imidazol-4-yl)-2-(2-(pyridin-2-yl)pyrrolidin-1-yl)furo[3,2-d]pyrimidin-4-amine] | < 100 nM
OC[C@@H]1CCCN1c1nc(Nc2cn(-c3ccccn3)cn2)c2cccn2n1 [Compound 66c, (S)-(1-(4-((1-(pyridin-2-yl)-1H-imidazol-4-yl)amino)pyrrolo[2,1-f][1,2,4]triazin-2-yl)pyrrolidin-2-yl)methanol] | < 100 nM
COc1cc(-n2cnc(Nc3nc(N4CCC[C@H]4C(N)=O)nc4sc(CN5CCC(O)CC5)cc34)c2)cc(OC)c1OC [Compound 404b, (S)-1-(6-((4-hydroxypiperidin-1-yl)methyl)-4-((1-(3,4,5-trimethoxyphenyl)-1H-imidazol-4-yl)amino)thieno[2,3-d]pyrimidin-2-yl)pyrrolidine-2-carboxamide] | < 100 nM
OC[C@@H]1CCCN1c1nc(Nc2cn(-c3ccccc3)cn2)c2cccn2n1 [Compound 8c, (S)-(1-(4-((1-phenyl-1H-imidazol-4-yl)amino)pyrrolo[2,1-f][1,2,4]triazin-2-yl)pyrrolidin-2-yl)methanol] | < 100 nM

SMILES | IC50
N#CC1CC(n2cnc(Nc3nc(N4CCC[C@H]4CO)nn4cccc34)c2)C1 (stereo partly drawn) [Compound 68a, (S)-3-(4-((2-(2-(hydroxymethyl)pyrrolidin-1-yl)pyrrolo[2,1-f][1,2,4]triazin-4-yl)amino)-1H-imidazol-1-yl)cyclobutanecarbonitrile] | < 100 nM
COc1cc(-c2ccc(Nc3nc(N4CCC[C@H]4CO)nc4ccccc34)nc2)cc(OC)c1OC [Compound 370b, (S)-(1-(4-((5-(3,4,5-trimethoxyphenyl)pyridin-2-yl)amino)quinazolin-2-yl)pyrrolidin-2-yl)methanol] | > 1000 nM
COc1cc(OC)cc(-n2cnc(Nc3nc(N4CCC[C@H]4CO)nn4cccc34)c2)c1 [Compound 72c, (S)-(1-(4-((1-(3,5-dimethoxyphenyl)-1H-imidazol-4-yl)amino)pyrrolo[2,1-f][1,2,4]triazin-2-yl)pyrrolidin-2-yl)methanol] | < 100 nM
Cc1cc2nc(N3CCC[C@H]3CO)nc(Nc3cn(-c4ccccc4)cn3)c2s1 [Compound 23c, (S)-(1-(6-methyl-4-((1-phenyl-1H-imidazol-4-yl)amino)thieno[3,2-d]pyrimidin-2-yl)pyrrolidin-2-yl)methanol] | < 100 nM
COc1cc(-n2cnc(Nc3nc(N4CCC[C@H]4CO)nc4cccnc34)c2)cc(OC)c1OC [Compound 140c, (S)-(1-(4-((1-(3,4,5-trimethoxyphenyl)-1H-imidazol-4-yl)amino)pyrido[3,2-d]pyrimidin-2-yl)pyrrolidin-2-yl)methanol] | < 100 nM
OC[C@@H]1CCCN1c1nc(Nc2cn(-c3ccccc3)cn2)c2occc2n1 [Compound 14b, (S)-(1-(4-((1-phenyl-1H-imidazol-4-yl)amino)furo[3,2-d]pyrimidin-2-yl)pyrrolidin-2-yl)methanol] | < 100 nM
COc1cc(-n2cnc(Nc3nc(N4CCC[C@H]4CO)c4cccn4n3)c2)cc(C(N)=O)c1OC [Compound 231a, (S)-5-(4-((4-(2-(hydroxymethyl)pyrrolidin-1-yl)pyrrolo[2,1-f][1,2,4]triazin-2-yl)amino)-1H-imidazol-1-yl)-2,3-dimethoxybenzamide] | 100 to 1000 nM
COc1cc(-n2cnc(Nc3nc(N4CCC[C@H]4CO)c4cccn4n3)n2)cc(OC)c1OC [Compound 415d, (S)-(1-(2-((1-(3,4,5-trimethoxyphenyl)-1H-1,2,4-triazol-3-yl)amino)pyrrolo[2,1-f][1,2,4]triazin-4-yl)pyrrolidin-2-yl)methanol] | 100 to 1000 nM
COc1cc(-n2cnc(Nc3nc(N4CCC[C@H]4CO)nc4cc(CN5CCCC5)ccc34)c2)cc(OC)c1OC [Compound 399f, (S)-(1-(7-(pyrrolidin-1-ylmethyl)-4-((1-(3,4,5-trimethoxyphenyl)-1H-imidazol-4-yl)amino)quinazolin-2-yl)pyrrolidin-2-yl)methanol] | < 100 nM
COc1cc(-n2cnc(Nc3nc(N4CC(F)(F)C[C@H]4CO)c4cccn4n3)c2)cc(OC)c1OC [Compound 223b, (S)-(4,4-difluoro-1-(2-((1-(3,4,5-trimethoxyphenyl)-1H-imidazol-4-yl)amino)pyrrolo[2,1-f][1,2,4]triazin-4-yl)pyrrolidin-2-yl)methanol] | < 100 nM
COc1cc(-n2cnc(Nc3nc(N4CCC[C@H]4CO)nc4cc(N5CCN(C)CC5)ccc34)c2)cc(OC)c1OC [Compound 375a, (S)-(1-(7-(4-methylpiperazin-1-yl)-4-((1-(3,4,5-trimethoxyphenyl)-1H-imidazol-4-yl)amino)quinazolin-2-yl)pyrrolidin-2-yl)methanol] | < 100 nM
COc1cc(-n2cnc(Nc3nc(N4CCC[C@H]4CO)c4ccn(C(C)C)c4n3)c2)cc(OC)c1OC [Compound 472c, (S)-(1-(7-isopropyl-2-((1-(3,4,5-trimethoxyphenyl)-1H-imidazol-4-yl)amino)-7H-pyrrolo[2,3-d]pyrimidin-4-yl)pyrrolidin-2-yl)methanol] | < 100 nM
COc1cc(-n2cnc(Nc3nc(N4CCC[C@H]4CO)nc4c3ccn4S(=O)(=O)c3ccc(C)cc3)c2)cc(OC)c1OC [Compound 141c, (S)-(1-(7-tosyl-4-((1-(3,4,5-trimethoxyphenyl)-1H-imidazol-4-yl)amino)-7H-pyrrolo[2,3-d]pyrimidin-2-yl)pyrrolidin-2-yl)methanol] | < 100 nM
COc1cc(-n2cnc(Nc3nc(N4CCC[C@H]4C(N)=O)nc4cnccc34)c2)cc(OC)c1OC [Compound 379a, (S)-1-(4-((1-(3,4,5-trimethoxyphenyl)-1H-imidazol-4-yl)amino)pyrido[3,4-d]pyrimidin-2-yl)pyrrolidine-2-carboxamide] | < 100 nM
Cn1cnc(Nc2nc(N3CCC[C@@H]3CO)nn3cccc23)c1 [Compound 7a, (R)-(1-(4-(1-methyl-1H-imidazol-4-ylamino)pyrrolo[1,2-f][1,2,4]triazin-2-yl)pyrrolidin-2-yl)methanol] | > 1000 nM
